For 12 compounds, IC50 results are on record in patent publication EP4660182A1, “NAV1.7- AND/OR NAV1.8-INHIBITING ARYL PYRIDINE COMPOUNDS, PROCESSES FOR THE PREPARATION THEREOF, COMPOSITIONS, USES, METHODS FOR TREATMENT USING SAME, AND KITS” (Eurofarma Laboratórios S.A., priority 2023, dated 2024).

Each structure is given as a SMILES string. Some results are limits rather than exact numbers.

Experiment [1] addresses T1, human sodium channels Nav 1.8 (Homo sapiens, UniProt Q9Y5Y9).
T1 construct: expressed in transfected cells
Kind of experiment: Automated whole-cell voltage-clamp (ScreenPatch 384P) sodium current block, Nav 1.8. It counts as cell-based. Conditions: CHO cells stably expressing human Nav 1.8; inactivation step -40 mV 8 s, test step 10 mV (TP1A); eight concentrations; exposure at least five minutes; room temperature; read-out: Nav1.8 IC50. In short, it runs like this: (§1)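 Stable CHO lines, whole-cell automated patch clamp at room temperature, ≥5 min exposure, eight concentrations. From -100 mV hold, 8 s at -40 mV, 20 ms at -100 mV, then test pulse to 10 mV (Nav 1.8) or 0 mV (Nav 1.7) at 0.05 Hz; peak-current % block fitted for IC50, averaged over repeats.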

Experiment [2] addresses T2, human sodium channels Nav 1.7 (Homo sapiens, UniProt Q15858).
T2 construct: expressed in transfected cells
Kind of experiment: Automated whole-cell voltage-clamp (ScreenPatch 384P) sodium current block, Nav 1.7. It counts as cell-based. Conditions: CHO cells stably expressing human Nav 1.7; inactivation step -40 mV 8 s, test step 0 mV (TP1A); eight concentrations; exposure at least five minutes; room temperature; read-out: Nav1.7 IC50. In outline:
as §1

T2 sequence (Q15858 whole entry): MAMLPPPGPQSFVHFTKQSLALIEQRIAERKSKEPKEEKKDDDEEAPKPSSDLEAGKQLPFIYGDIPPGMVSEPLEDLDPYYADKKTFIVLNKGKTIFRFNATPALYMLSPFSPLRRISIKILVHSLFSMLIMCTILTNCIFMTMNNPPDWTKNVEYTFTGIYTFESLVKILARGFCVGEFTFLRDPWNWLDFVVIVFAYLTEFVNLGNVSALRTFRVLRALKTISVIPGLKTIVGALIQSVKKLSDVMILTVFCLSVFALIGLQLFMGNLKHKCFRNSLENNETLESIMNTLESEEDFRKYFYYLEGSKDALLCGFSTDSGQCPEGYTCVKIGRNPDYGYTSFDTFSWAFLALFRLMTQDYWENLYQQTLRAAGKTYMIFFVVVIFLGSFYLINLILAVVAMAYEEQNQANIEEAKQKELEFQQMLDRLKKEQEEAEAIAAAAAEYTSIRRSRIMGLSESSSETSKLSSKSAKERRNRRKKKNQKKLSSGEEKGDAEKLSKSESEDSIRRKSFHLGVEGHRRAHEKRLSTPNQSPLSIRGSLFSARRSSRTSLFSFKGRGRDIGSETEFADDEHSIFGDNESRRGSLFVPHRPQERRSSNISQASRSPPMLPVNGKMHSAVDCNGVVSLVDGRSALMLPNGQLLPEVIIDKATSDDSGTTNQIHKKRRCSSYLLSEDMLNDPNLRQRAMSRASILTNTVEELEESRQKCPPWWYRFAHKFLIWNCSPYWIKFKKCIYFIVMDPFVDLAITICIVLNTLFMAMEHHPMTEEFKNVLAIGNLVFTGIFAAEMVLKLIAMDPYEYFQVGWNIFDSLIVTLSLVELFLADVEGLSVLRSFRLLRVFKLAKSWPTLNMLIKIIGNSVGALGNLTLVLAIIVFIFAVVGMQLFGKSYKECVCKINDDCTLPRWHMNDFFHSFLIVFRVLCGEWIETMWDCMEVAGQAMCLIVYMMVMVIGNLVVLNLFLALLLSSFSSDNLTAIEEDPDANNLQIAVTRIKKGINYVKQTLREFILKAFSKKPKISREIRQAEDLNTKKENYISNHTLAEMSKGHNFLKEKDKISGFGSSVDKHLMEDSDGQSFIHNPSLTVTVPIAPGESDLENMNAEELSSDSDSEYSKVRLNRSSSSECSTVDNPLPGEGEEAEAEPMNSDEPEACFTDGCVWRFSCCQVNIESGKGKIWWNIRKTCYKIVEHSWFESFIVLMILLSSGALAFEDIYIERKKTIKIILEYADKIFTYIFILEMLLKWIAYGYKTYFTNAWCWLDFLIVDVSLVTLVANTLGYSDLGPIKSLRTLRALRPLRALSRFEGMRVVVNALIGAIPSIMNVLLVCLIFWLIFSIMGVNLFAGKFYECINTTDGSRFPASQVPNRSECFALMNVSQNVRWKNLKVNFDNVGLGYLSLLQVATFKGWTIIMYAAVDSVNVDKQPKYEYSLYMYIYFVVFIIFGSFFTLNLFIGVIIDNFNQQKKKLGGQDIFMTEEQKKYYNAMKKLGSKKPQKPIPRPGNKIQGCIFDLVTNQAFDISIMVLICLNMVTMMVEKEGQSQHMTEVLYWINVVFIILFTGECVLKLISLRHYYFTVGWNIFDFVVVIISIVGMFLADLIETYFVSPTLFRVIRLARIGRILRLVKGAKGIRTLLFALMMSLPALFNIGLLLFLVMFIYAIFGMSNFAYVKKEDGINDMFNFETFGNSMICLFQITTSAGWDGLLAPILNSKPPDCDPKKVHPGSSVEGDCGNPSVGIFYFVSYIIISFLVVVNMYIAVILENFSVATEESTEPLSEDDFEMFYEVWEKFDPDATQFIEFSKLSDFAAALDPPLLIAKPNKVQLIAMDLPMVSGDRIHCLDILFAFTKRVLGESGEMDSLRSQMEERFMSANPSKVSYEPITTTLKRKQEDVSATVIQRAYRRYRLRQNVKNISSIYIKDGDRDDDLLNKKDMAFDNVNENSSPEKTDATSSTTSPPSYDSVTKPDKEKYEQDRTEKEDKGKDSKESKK
T1 sequence (Q9Y5Y9 whole entry): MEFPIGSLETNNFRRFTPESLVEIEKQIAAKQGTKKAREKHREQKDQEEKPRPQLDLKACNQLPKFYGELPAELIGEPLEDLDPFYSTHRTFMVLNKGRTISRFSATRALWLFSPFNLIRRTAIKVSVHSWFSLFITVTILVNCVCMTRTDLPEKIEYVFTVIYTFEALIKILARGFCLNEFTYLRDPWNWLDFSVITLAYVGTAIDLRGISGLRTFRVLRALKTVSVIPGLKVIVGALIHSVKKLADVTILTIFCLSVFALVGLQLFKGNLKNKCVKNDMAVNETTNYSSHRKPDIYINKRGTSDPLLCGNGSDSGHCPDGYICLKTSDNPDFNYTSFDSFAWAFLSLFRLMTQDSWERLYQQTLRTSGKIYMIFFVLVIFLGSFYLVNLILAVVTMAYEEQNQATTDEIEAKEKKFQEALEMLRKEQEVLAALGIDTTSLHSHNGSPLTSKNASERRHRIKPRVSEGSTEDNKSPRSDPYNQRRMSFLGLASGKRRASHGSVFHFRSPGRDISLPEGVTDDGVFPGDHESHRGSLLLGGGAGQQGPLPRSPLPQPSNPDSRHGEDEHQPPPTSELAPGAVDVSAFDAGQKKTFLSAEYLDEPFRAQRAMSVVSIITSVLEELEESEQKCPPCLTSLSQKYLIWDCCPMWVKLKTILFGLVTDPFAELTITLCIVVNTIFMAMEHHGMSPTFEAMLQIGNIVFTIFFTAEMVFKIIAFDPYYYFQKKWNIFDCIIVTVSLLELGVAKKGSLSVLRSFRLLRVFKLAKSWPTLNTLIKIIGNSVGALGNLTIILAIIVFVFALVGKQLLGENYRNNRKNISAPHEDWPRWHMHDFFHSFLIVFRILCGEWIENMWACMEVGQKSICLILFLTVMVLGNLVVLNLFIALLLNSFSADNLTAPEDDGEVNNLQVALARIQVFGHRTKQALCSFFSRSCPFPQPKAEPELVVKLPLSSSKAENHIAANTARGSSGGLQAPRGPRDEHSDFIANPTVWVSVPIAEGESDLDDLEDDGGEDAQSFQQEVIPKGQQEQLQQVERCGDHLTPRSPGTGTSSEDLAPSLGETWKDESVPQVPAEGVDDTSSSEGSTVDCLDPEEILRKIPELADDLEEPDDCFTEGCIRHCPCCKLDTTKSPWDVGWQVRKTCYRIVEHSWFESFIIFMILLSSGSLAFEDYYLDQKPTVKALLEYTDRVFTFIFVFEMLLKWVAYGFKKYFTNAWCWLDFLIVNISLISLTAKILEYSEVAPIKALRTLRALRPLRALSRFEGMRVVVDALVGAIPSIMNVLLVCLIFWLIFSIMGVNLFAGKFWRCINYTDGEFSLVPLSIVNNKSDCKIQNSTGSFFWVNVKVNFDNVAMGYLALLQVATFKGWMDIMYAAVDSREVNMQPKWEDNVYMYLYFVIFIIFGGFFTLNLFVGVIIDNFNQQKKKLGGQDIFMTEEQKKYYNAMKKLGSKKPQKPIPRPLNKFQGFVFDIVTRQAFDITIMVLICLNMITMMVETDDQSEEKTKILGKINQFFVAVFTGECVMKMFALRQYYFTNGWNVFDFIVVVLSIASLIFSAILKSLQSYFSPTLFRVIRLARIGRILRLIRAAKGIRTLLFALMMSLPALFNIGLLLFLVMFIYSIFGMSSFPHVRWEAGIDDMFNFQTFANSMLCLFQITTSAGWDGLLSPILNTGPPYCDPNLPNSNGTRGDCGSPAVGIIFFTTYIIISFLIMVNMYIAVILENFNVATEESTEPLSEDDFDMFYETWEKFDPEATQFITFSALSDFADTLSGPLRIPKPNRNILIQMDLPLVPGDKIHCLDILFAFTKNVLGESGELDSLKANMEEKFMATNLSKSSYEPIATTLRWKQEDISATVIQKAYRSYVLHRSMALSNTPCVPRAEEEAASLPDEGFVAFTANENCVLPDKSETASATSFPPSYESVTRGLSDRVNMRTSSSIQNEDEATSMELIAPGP

On to `CC(O)c1cccc(/C=N/NC(=O)c2cncc(-c3ccc(OC(F)F)nc3)n2)c1` (stereo not drawn) [Compound 109, (E)-6-(6-(difluoromethoxy)pyridine-3-yl)-N'-(3-(1-hydroxyethyl)benzylidene) pyrazine-2-carbohydrazide], for which the IC50 is 500 to 1000 nM in experiment [1] and over 1000 nM in experiment [2].

For the compound `COc1ccc(F)c(/C=N/NC(=O)c2cncc(-c3ccc(OCC4CNC4)nc3)n2)c1` [Compound 140, (E)-6-(6-(azetidin-3-ylmethoxy)pyridine-3-yl)-N'-(2-fluoro-5-methoxybenzylidene) pyrazine-2-carbohydrazide], the IC50 in experiment [1] and in experiment [2] was over 1000 nM throughout.

For the compound `COc1ccc(F)c(/C=N/NC(=O)c2cnc(O)c(-c3ccc(OC(F)(F)F)nc3)n2)c1` [Compound 98, (E)-N'-(2-fluoro-5-methoxybenzylidene)-5-hydroxy-6-(6-(trifluoromethoxy)pyridine-3-yl)pyrazine-2-carbohydrazide], the IC50 in experiment [1] and in experiment [2] was over 1000 nM throughout.

Turning to `O=C(N/N=C/c1cc(OC2CC2)ccc1F)c1cncc(-c2ccc(OC(F)(F)F)nc2)n1` [Compound 94, (E)-N'-(5-cyclopropoxy-2-fluorobenzylidene)-6-(6-(trifluoromethoxy)pyridine-3-yl)pyrazine-2-carbohydrazide], the IC50 in experiment [1] and in experiment [2] was under 500 nM in each case.

For `CCOc1ccc(-c2nccc(C(=O)N/N=C/c3cc(OC)cnc3F)n2)cn1` [Compound 72, (E)-2-(6-ethoxypyridine-3-yl)-N'-((2-fluoro-5-methoxypyridine-3-yl)methylene) pyrimidine-4-carbohydrazide], the values for the IC50 in experiment [1] and in experiment [2] were under 500 nM and over 1000 nM, respectively.

With `CC(O)c1cnc(F)c(/C=N/NC(=O)c2cncc(-c3ccc(OC(F)F)nc3)n2)c1` (stereo not drawn) [Compound 112, (E)-6-(6-(difluoromethoxy)pyridine-3-yl)-N'-((2-fluoro-5-(1-hydroxyethyl)pyridine-3-yl)methylene)pyrazine-2-carbohydrazide], the IC50 was 500 to 1000 nM in experiment [1] and over 1000 nM in experiment [2].

As to `CCOc1ccc(-c2cncc(C(=O)N/N=C/c3cc(OC4CC4)ccc3F)n2)cn1` [Compound 6, (E)-N'-(5-cyclopropoxy-2-fluorobenzylidene)-6-(6-ethoxypyridine-3-yl)pyrazine-2-carbohydrazide], the IC50 in experiment [1] is under 500 nM; in experiment [2], over 1000 nM.

Regarding `CCOc1ccc(-c2nc(C(=O)N/N=C/c3cc(OC)ccc3F)cn(C)c2=O)cn1` [Compound 76, (E)-6-(6-ethoxypyridine-3-yl)-N'-(2-fluoro-5-methoxybenzylidene)-4-methyl-5-oxo-4,5-dihydropyrazine-2-carbohydrazide], the IC50 in experiment [1] and in experiment [2] was over 1000 nM each time.

Take `CCOc1ccc(-c2cnc(O)c(C(=O)N/N=C/c3cc(OC)ccc3F)n2)cn1` [Compound 68, (E)-6-(6-ethoxypyridine-3-yl)-N'-(2-fluoro-5-methoxybenzylidene)-3-hydroxypyrazine-2-carbohydrazide]: the IC50 in experiment [1] and in experiment [2] was over 1000 nM each time.

For `CCOc1ccc(-c2cncc(C(=O)N/N=C/c3cccc(C(C)O)c3)n2)cn1` (stereo not drawn) [Compound 22, (E)-6-(6-ethoxypyridine-3-yl)-N'-(3-(1-hydroxyethyl)benzylidene)pyrazine-2-carbohydrazide], the IC50 is 500 to 1000 nM in experiment [1] and over 1000 nM in experiment [2].

In the case of `CCOc1ccc(-c2cncc(C(=O)N/N=C/c3cc(OC4CCC4)ccc3F)n2)cn1` [Compound 21, (E)-N'-(5-cyclobutoxy-2-fluorobenzylidene)-6-(6-ethoxypyridine-3-yl)pyrazine-2-carbohydrazide], the half-inhibitory concentration (IC50) was under 500 nM in experiment [1] and 500 to 1000 nM in experiment [2].

With `COc1cncc(/C=N/NC(=O)c2cncc(-c3ccc(OC(F)F)nc3)n2)c1` [Compound 107, (E)-6-(6-(difluoromethoxy)pyridine-3-yl)-N'-((5-methoxypyridine-3-yl)methylene)pyrazine-2-carbohydrazide], the IC50 in experiment [1] and in experiment [2] was over 1000 nM in each case.
